Measurements published in US20240398828A1, “HETERO-ATOM CONTAINING COMPOUNDS AND USES THEREOF” (Kumquat Biosciences Inc., priority 2021, published 2024).

Tests used:
[1] = biological target: T1, PTPN2 (i.e., TC-PTP) (Homo sapiens, UniProt P17706); experiment: Phosphatase activity assay (DiFMUP substrate), PTPN2; format: biochemical; conditions: compounds binned ≤1 uM or >1 uM
T1 sequence (P17706 1-415): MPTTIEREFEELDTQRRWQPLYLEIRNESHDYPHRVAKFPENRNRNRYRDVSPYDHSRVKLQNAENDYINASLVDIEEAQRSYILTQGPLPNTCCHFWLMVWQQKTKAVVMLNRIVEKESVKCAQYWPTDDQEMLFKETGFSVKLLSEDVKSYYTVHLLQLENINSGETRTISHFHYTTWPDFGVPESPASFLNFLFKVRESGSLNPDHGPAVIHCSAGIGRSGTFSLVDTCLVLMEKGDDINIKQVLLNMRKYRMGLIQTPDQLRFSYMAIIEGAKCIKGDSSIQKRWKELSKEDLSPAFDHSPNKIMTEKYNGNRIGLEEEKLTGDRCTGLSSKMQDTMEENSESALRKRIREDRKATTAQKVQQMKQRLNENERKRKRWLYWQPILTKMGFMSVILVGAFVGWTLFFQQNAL
Description: (§1) The selectivity and potency of a small molecule PTPN2 inhibitor as provided herein against one or more protein tyrosine phosphatase (PTP) enzymes, and specifically against PTPN2, is assessed in various ways. The one or more PTP enzymes comprise Mycobacterium protein tyrosine phosphatase A (mPTPA), Mycobacterium protein tyrosine phosphatase B (mPTPB), PTPN1 (i.e., PTP1B), PTPN2 (i.e., TC-PTP), PTPN22 (i.e., LYP), SHP-1, SHP-2, FAP-1, Meg2, HePTP, Laforin, VHX, VHR, LMWPTP, Cdc14A, LAR, CD45, PTPRG, a fragment thereof, a variant thereof, and a combination thereof. Selectivity and potency of a small molecule PTPN2 inhibitor is evaluated using a PTP activity inhibition assay. The assay is performed using a buffer comprising 50 mM HEPES buffer pH 7.5, 150 mM NaCl, 0.5 mM EDTA, 1 mM DTT, 0.001% Tween-20.
(§2) The assay is performed using a phosphated substrate, e.g., 10 mM 6,8-Difluoro-4-Methylumbelliferyl Phosphate (DIFMUP) that is stored at −20° C. Alternatively or in addition to, the assay is performed using other phosphated substrate (e.g., fluorescein diphosphate). Each PTP enzyme is diluted in the assay buffer
(§3) The assay can be carried out at room temperature in multiplate format, e.g., using 384 well plates. A small molecule PTPN2 inhibitor dissolved in DMSO at one of 10 concentrations from a serial dilution or DMSO alone for control is added to each well. A mixture of the assay buffer comprising PTP enzyme (e.g., 0.025 ng/ul PTPN2) is added to each well and mixed for approximately 2 minutes. The reaction is initiated by adding DiFMUP diluted in the assay buffer to a final concentration of approximately 45 μM DiFMUP in PTPN2 assay. For each PTP enzyme, DiFMUP is added at the Km (Michaelis constant) of the enzyme that had been independently determined. The phosphatase activity of the PTP enzyme is assessed by monitoring appearance of a fluorescent product (6,8-difluoro-7-hydroxyl-4-coumarin (DiFMU) from DiFMUP) continuously for about 15 to 30 minutes, using the INFINITE M1000Pro plate reader (Tecan) with excitation at 360 nm and emission at 450 nm (cutoff filter at 435 nm) for DiFMU. Each assay is performed at least in duplicate. The rate (e.g., the initial rate) of DiFMU formation is plotted against the concentration of the small molecule PTPN2 inhibitor, and the data is fitted (e.g., using a 4-parameter equation) to determine the inflection point of the fit as the IC50 of the small molecule PTPN2 inhibitor for a specific enzyme. Utilizing this assay, the ability of the compounds in Table 2 to inhibit PTPN2 and PTP1B has been assessed. Table 3 summarizes the IC50 values.

[2] = biological target: T2, PTPN1 (i.e., PTP1B) (Homo sapiens, UniProt P18031); experiment: Phosphatase activity assay (DiFMUP substrate), PTP1B; format: biochemical; conditions: compounds binned ≤1 uM or >1 uM
T2 sequence (P18031 1-435): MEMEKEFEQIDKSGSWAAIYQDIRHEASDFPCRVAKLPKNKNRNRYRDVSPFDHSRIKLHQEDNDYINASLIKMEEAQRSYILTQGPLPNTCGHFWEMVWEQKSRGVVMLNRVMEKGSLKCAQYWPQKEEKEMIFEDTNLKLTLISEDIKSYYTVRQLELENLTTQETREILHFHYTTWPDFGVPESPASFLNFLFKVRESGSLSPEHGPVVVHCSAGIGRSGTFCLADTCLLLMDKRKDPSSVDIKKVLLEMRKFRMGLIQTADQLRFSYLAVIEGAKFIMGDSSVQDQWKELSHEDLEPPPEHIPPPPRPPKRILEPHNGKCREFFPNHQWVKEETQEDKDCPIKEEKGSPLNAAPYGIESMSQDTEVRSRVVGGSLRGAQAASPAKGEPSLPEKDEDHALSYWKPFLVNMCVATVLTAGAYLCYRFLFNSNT
Description: as §1, §2, §3

IC50 [1] [nM] | IC50 [2] [nM] | SMILES
≤ 1000 | ≤ 1000 | Cn1nc(-c2ccc(O)c(N3CC(=O)NS3(=O)=O)c2F)cc1C1(N)CC1 [Compound 345, 5-(3-(5-(1-aminocyclopropyl)-1-methyl-1H-pyrazol-3-yl)-2-fluoro-6-hydroxyphenyl)-1,2,5-thiadiazolidin-3-one 1,1-dioxide]
≤ 1000 | ≤ 1000 | CN1CCC(Nc2cccc(-c3ccc(O)c(N4CC(=O)NS4(=O)=O)c3F)c2)CC1 [Compound 225, 5-(2-fluoro-4-hydroxy-3′-((1-methylpiperidin-4-yl)amino)-[1,1′-biphenyl]-3-yl)-1,2,5-thiadiazolidin-3-one 1,1-dioxide]
≤ 1000 | ≤ 1000 | O=C1CN(c2c(O)ccc(-c3cn(Cc4ccccc4)nn3)c2F)S(=O)(=O)N1 [Compound 205, 5-(3-(1-benzyl-1H-1,2,3-triazol-4-yl)-2-fluoro-6-hydroxyphenyl)-1,2,5-thiadiazolidin-3-one 1,1-dioxide]
≤ 1000 | ≤ 1000 | O=C1CN(c2c(O)ccc(-c3cnn(C(=O)C4CC4)c3)c2F)S(=O)(=O)N1 [Compound 537, 5-(3-(1-(cyclopropanecarbonyl)-1H-pyrazol-4-yl)-2-fluoro-6-hydroxyphenyl)-1,2,5-thiadiazolidin-3-one 1,1-dioxide]
≤ 1000 | ≤ 1000 | CCCC1C=C(c2ccc(O)c(N3CC(=O)NS3(=O)=O)c2F)CN1 (centres unmarked) [Compound 515, 5-(2-fluoro-6-hydroxy-3-(5-propyl-2,5-dihydro-1H-pyrrol-3-yl)phenyl)-1,2,5-thiadiazolidin-3-one 1,1-dioxide]
≤ 1000 | ≤ 1000 | CC(C)C1C=C(c2ccc(O)c(N3CC(=O)NS3(=O)=O)c2F)CN1 (centres unmarked) [Compound 482, 5-(2-fluoro-6-hydroxy-3-(5-isopropyl-2,5-dihydro-1H-pyrrol-3-yl)phenyl)-1,2,5-thiadiazolidin-3-one 1,1-dioxide]
≤ 1000 | ≤ 1000 | O=C1CN(c2c(O)ccc(-c3cnn(Cc4ccc(F)c(F)c4)c3)c2F)S(=O)(=O)N1 [Compound 211, 5-(3-(1-(3,4-difluorobenzyl)-1H-pyrazol-4-yl)-2-fluoro-6-hydroxyphenyl)-1,2,5-thiadiazolidin-3-one 1,1-dioxide]
≤ 1000 | ≤ 1000 | O=C1CN(c2c(O)ccc(-c3cccc(N4CCCC4)c3)c2F)S(=O)(=O)N1 [Compound 122, 5-(2-fluoro-4-hydroxy-3′-(pyrrolidin-1-yl)-[1,1′-biphenyl]-3-yl)-1,2,5-thiadiazolidin-3-one 1,1-dioxide]
≤ 1000 | ≤ 1000 | CN(C)CCn1cc(-c2ccc(O)c(N3CC(=O)NS3(=O)=O)c2F)cn1 [Compound 148, 5-(3-(1-(2-(dimethylamino)ethyl)-1H-pyrazol-4-yl)-2-fluoro-6-hydroxyphenyl)-1,2,5-thiadiazolidin-3-one 1,1-dioxide]
≤ 1000 | ≤ 1000 | O=C1CN(c2c(O)ccc(-c3ccc(OCC4CC4)nc3)c2F)S(=O)(=O)N1 [Compound 166, 5-(3-(6-(cyclopropylmethoxy)pyridin-3-yl)-2-fluoro-6-hydroxyphenyl)-1,2,5-thiadiazolidin-3-one 1,1-dioxide]
≤ 1000 | ≤ 1000 | O=C1CN(c2c(O)ccc(-c3c[nH]cn3)c2F)S(=O)(=O)N1 [Compound 158, 5-(2-fluoro-6-hydroxy-3-(1H-imidazol-4-yl)phenyl)-1,2,5-thiadiazolidin-3-one 1,1-dioxide]
≤ 1000 | ≤ 1000 | O=C1CN(c2c(O)ccc(C3=CCOCC3)c2F)S(=O)(=O)N1 [Compound 405, 5-(3-(3,6-dihydro-2H-pyran-4-yl)-2-fluoro-6-hydroxyphenyl)-1,2,5-thiadiazolidin-3-one 1,1-dioxide]
≤ 1000 | ≤ 1000 | CC(C)Cn1cc(-c2ccc(O)c(N3CC(=O)NS3(=O)=O)c2F)cn1 [Compound 149, 5-(2-fluoro-6-hydroxy-3-(1-isobutyl-1H-pyrazol-4-yl)phenyl)-1,2,5-thiadiazolidin-3-one 1,1-dioxide]
≤ 1000 | ≤ 1000 | CO[C@H]1CC[C@@H](n2cc(-c3ccc(O)c(N4CC(=O)NS4(=O)=O)c3F)cn2)CC1 [Compound 383, 5-(2-fluoro-6-hydroxy-3-(1-((1s,4s)-4-methoxycyclohexyl)-1H-pyrazol-4-yl)phenyl)-1,2,5-thiadiazolidin-3-one 1,1-dioxide]
≤ 1000 | ≤ 1000 | O=C1CN(c2c(O)ccc(C3=CCN(S(=O)(=O)CCC(F)(F)F)C3)c2F)S(=O)(=O)N1 [Compound 251, 5-(2-fluoro-6-hydroxy-3-(1-((3,3,3-trifluoropropyl)sulfonyl)-2,5-dihydro-1H-pyrrol-3-yl)phenyl)-1,2,5-thiadiazolidin-3-one 1,1-dioxide]
≤ 1000 | ≤ 1000 | O=C1CN(c2c(O)ccc(C3=CC(CCc4ccccc4)NC3)c2F)S(=O)(=O)N1 (centres unmarked) [Compound 473, 5-(2-fluoro-6-hydroxy-3-(5-phenethyl-2,5-dihydro-1H-pyrrol-3-yl)phenyl)-1,2,5-thiadiazolidin-3-one 1,1-dioxide]
≤ 1000 | ≤ 1000 | O=C1CN(c2c(O)ccc(-c3cnn(C4CCCOCC4)c3)c2F)S(=O)(=O)N1 (centres unmarked) [Compound 456, 5-(2-fluoro-6-hydroxy-3-(1-(oxepan-4-yl)-1H-pyrazol-4-yl)phenyl)-1,2,5-thiadiazolidin-3-one 1,1-dioxide]
≤ 1000 | ≤ 1000 | CC(C)CCN1CC=C(c2ccc(O)c(N3CC(=O)NS3(=O)=O)c2F)C1 [Compound 544, 5-(2-fluoro-6-hydroxy-3-(1-isopentyl-2,5-dihydro-1H-pyrrol-3-yl)phenyl)-1,2,5-thiadiazolidin-3-one 1,1-dioxide]
≤ 1000 | ≤ 1000 | O=C1CN(c2c(O)ccc(-c3cc(N4CCCOCC4)n[nH]3)c2F)S(=O)(=O)N1 [Compound 344, 5-(3-(3-(1,4-oxazepan-4-yl)-1H-pyrazol-5-yl)-2-fluoro-6-hydroxyphenyl)-1,2,5-thiadiazolidin-3-one 1,1-dioxide]
> 1000 | – | CC(C1CCCCC1)n1cnc(-c2ccc(O)c(N3CC(=O)NS3(=O)=O)c2F)c1 (centres unmarked) [Compound 413, 5-(3-(1-(1-cyclohexylethyl)-1H-imidazol-4-yl)-2-fluoro-6-hydroxyphenyl)-1,2,5-thiadiazolidin-3-one 1,1-dioxide]

SMILES | IC50 [1] [nM] | IC50 [2] [nM]
O=C1CN(c2c(O)ccc(C3=CCN(CC(F)(F)F)CC3)c2F)S(=O)(=O)N1 [Compound 393, 5-(2-fluoro-6-hydroxy-3-(1-(2,2,2-trifluoroethyl)-1,2,3,6-tetrahydropyridin-4-yl)phenyl)-1,2,5-thiadiazolidin-3-one 1,1-dioxide] | ≤ 1000 | ≤ 1000
